# Data: US20180280447A1, “PLACENTA-DERIVED CELLS EXCRETING C3 OR C1R COMPLEMENT AND COMPOSITION CONTAINING SAME” (SUNGKWANG MEDICAL FOUNDATION, priority 2014, published 2018)
# B1: FGF4: growth factor (R&D Systems) tested for neural induction of hPDCs (protein, UniProt P08620 31-206, looked up)
# Fibroblast growth factor 4: APTAPNGTLEAELERRWESLVALSLARLPVAAQPKEAAVQSGAGDYLLGIKRLRRLYCNVGIGFHLQALPDGRIGGAHADTRDSLLELSPVERGVVSIFGVASRFFVAMSSKGKLYGSPFFTDECTFKEILLPNNYNAYESYKYPGMFIALSKNGKTKKGNRVSPTMKVTHFLPRL
# B2: DLL1-FLAG: recombinant DLL1 protein (protein, UniProt O00548 18-545, looked up)
# extracellular domain: QVWSSGVFELKLQEFVNKKGLLGNRNCCRGGAGPPPCACRTFFRVCLKHYQASVSPEPPCTYGSAVTPVLGVDSFSLPDGGGADSAFSNPIRFPFGFTWPGTFSLIIEALHTDSPDDLATENPERLISRLATQRHLTVGEEWSQDLHSSGRTDLKYSYRFVCDEHYYGEGCSVFCRPRDDAFGHFTCGERGEKVCNPGWKGPYCTEPICLPGCDEQHGFCDKPGECKCRVGWQGRYCDECIRYPGCLHGTCQQPWQCNCQEGWGGLFCNQDLNYCTHHKPCKNGATCTNTGQGSYTCSCRPGYTGATCELGIDECDPSPCKNGGSCTDLENSYSCTCPPGFYGKICELSAMTCADGPCFNGGRCSDSPDGGYSCRCPVGYSGFNCEKKIDYCSSSPCSNGAKCVDLGDAYLCRCQAGFSGRHCDDNVDDCASSPCANGGTCRDGVNDFSCTCPPGYTGRNCSAPVSRCEHAPCHNGATCHERGHRYVCECARGYGGPNCQFLLPELPPGPAVVDLTEKLEGQGGPFPW
# modifications: extracellular domain FLAG tag
# notes: recombinant DLL1 protein
# Tests used:
# Assay type in all cases: cell-based, human
# [1] = test system: TGF-β1 mRNA; assay: TGF-β1 gene silencing by siRNA in PDCs
# Excerpt: Using the human nucleotide sequences for TGF-β1 mRNA obtained from GenBank (GI:260655621) and referring to the design strategy of siRNA, two pairs of 21-bp reverse repeat sequences targeting TGF-β1 mRNA were synthesized by Bioneer (Seoul, Korea). siRNA targeted forward: 5′. CAGAGUACACACAGCAUAU-3′(1243-1261) (SEQ ID NO: 31); reverse, 5′-AUAUGCUGUGUGUACUCUG-3′(1261-1243) (SEQ ID NO: 32) of the TGF-β coding sequence. siRNA (at a final concentration of 100 pmol) was transfected with Upofectamine 2000 (Invitrogen, Gaithersburg, Md.) according to the manufacturer's instructions. The efficacy of TGF-β1 gene silencing was assessed by quantitative real-time PCR and Western blotting.
# [2] = test system: hPDCs; assay: Suppression of FGF4 downstream signaling (ERK, JNK) in hPDCs
# Procedure: […] To analyze suppression of Notch signaling, ASCs were in cultured for 1 hour in a 10% FBS-supplemented alpha-MEM medium pretreated with or without 50 μM of Notch-inhibiting DAPT (N—[N-(3,5-difluorophenacetyl)-1-alanyl]-S-phenylglycine t-butyl ester, Sigma), and then stimulated with 25 ng/mL FGF4 for 3 days.
# Cells were first fixed in 4% PFA at room temperature for 15 minutes, and then permeabilized with 0.1% Triton X-100 for 20 minutes, followed by blocking with 10% normal goat serum (NGS). The following primary antibodies were used: anti-neuron classIII β-tubulin (Tuji), -Nestin (Covance), -Ki-67 (Novocastra), -SOX2, -NANOG, KLF4, Brachyury/Bry (all from Abcam), OCT3/4, GATA4 (all from Santa Cruz). Cells were incubated with Alexa Fluor 488 or 594-conjugated antibody (Molecular Probes) at room temperature for 1 hour, and to examine nuclei, cells were stained with 4′, 6-diamino-2-phenylindole (DAPI, 2 mg/mL in PBS). A cover-slip was sealed to a glass slide. Cells were visualized by a fluorescence microscope or a confocal fluorescence microscope (LSM 510 confocal microscope, Zeiss).
# [3] = test system: hPDCs; assay: Notch/DLL1 signaling in nerve/neuron induction of hPDCs
# Procedure: (§1) Quantitative RT-PCR: Total RNA was isolated from cells using TRizol (Invitrogen). cDNA was synthesized from 1 μg of total RNA using Superscript II reverse transcriptase, Oligo-d(T) 12-18 primer, DTT, and dNTPs according to the manufacturer's protocol. RT-PCR was performed by using a Pre-Mix kit (Bioneer). A PCR product was electrophoresed on a 2% agarose gel using RedGel (Biotium, Inc), and visualized by a UV-transilluminator.
# To suppress FGF4 downstream signaling, hPDCs were cultured for 1 hour in a 10% FBS-supplemented alpha-MEM medium pretreated with or without 5 μM of ERK-inhibiting U0126 or 10 μM of JNK-inhibiting SP600125 (Calbiochem) in dimethyl sulfoxide (DMSO), and then stimulated with 25 ng/mL FGF4 for 3 days. To analyze suppression of Notch signaling, […] were in cultured for 1 hour in a 10% FBS-supplemented alpha-MEM medium pretreated with or without 50 μM of Notch-inhibiting DAPT (N—[N-(3,5-difluorophenacetyl)-1-alanyl]-S-phenylglycine t-butyl ester, Sigma), and then stimulated with 25 ng/mL FGF4 for 3 days.
# [4] = test system: hPDCs; assay: Neural induction of hPDCs by FGF4; conditions: 3 days
# Procedure: as §1
# Immunoblotting analysis: Cells were washed with cold PBS, and lysed with a lysis buffer containing a protease inhibitor cocktail (Pierce). A total cell lysate was normalized with a Bradford reagent (Bio-Rad), and 30˜50 μg of the cell lysate was applied to 8˜12% SDS-PAGE and transferred onto a PVDF membrane (Milipore). The membrane was blocked with TBS-T (50 mM Tris-HCl, pH 7.6, 150 mM NaCl, 0.05% Tween-20) containing 5% skim milk (Becton Dickinson), and examined with respective antibodies. An immune reaction was performed by using an ECL Western Blotting system (Millipore, Amersham). […]
# Cells were first fixed in 4% PFA at room temperature for 15 minutes, and then permeabilized with 0.1% Triton X-100 for 20 minutes, followed by blocking with 10% normal goat serum (NGS). […] Cells were visualized by a fluorescence microscope or a confocal fluorescence microscope (LSM 510 confocal microscope, Zeiss).
molecule,measurement,setting,value
"TGF-β siRNA: siRNA targeting TGF-β1 mRNA, SEQ ID NO: 31 and 32, synthesized by Bioneer (chain 1 CAGAGUACACACAGCAUAU; chain 2 AUAUGCUGUGUGUACUCUG; listed as RNA, chemistry not given here)",PEDF and Ang-1 expressions,[1]; after TGF-β siRNA transfection,no changes
same,decrease of TGF-β expression,"[1]; quantitative real-time PCR, compared with control PDCs",80-90%
Oc1c2ccccc2c2c3c(cccc13)N=N2 [SP600125],% Ki-67 cells in total DAPI+ cells,[2]; SP600125,37.53±1.89%
same,Nestin+ total cells,"[2]; SP600125, FGF4, 72 hours",48.47±3.07
"C[C@H](NC(=O)Cc1cc(F)cc(F)c1)C(=O)N[C@H](C(=O)OC(C)(C)C)c1ccccc1 [DAPT, N—[N-(3,5-difluorophenacetyl)-1-alanyl]-S-phenylglycine t-butyl ester]","DLL1, Nestin, and TUJ1 gene expression","[3]; compared with DMSO-treated cells, HD culture with FGF4",significantly low levels
N#CC(=C(/N)Sc1ccccc1N)/C(C#N)=C(\N)Sc1ccccc1N [U0126],% Ki-67+ cells in total DAPI+ cells,[2]; 5 mM U0216,64.46±2.14%
same,Nestin+ total cells,"[2]; 5 mM U0216, FGF4, 72 hours",47.61±3.46
same,Nestin protein levels,"[2]; FGF4-treated hPDCs, immunoblotting",decrease in Nestin protein levels
B1,expression levels of Nestin and Musashi1,[4]; 25 ng/mL FGF4 vs 10 ng/mL EGF or 10 ng/mL bFGF,much higher
same,mRNA expression level of Nestin,"[4]; 25 ng/mL among 10, 25, 50 ng/mL",highest mRNA expression level of Nestin
B2,"mRNA levels of DLL1, Nestin, and TUJ1",[3]; three days with FGF4 in hPDC cultures,up-regulated
